From the supplement of paper PMC10011410
± gives the standard deviation of the averaged measurements.

Experiments:
U-2 OS [1] = assay: cell painting activity score (Mahalanobis distance from DMSO wells); higher = stronger morphological phenotype; conditions: 24 h
Method: (§1)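 Cell painting in U-2 OS cells (384-well, about 1,500 cells per well), compound exposure 24 h, usually six 2-fold concentrations from 20 to 0.625 uM (some compounds higher or lower). Relative cell count is the cell number per well relative to DMSO wells. Activity score is the Mahalanobis distance of the morphological profile from DMSO control wells. Mean of four technical replicate plates.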

U-2 OS [2] = assay: relative cell count vs DMSO (cell painting) (fraction of DMSO control); higher = more cells remaining (less cytotoxic); conditions: 24 h
Method: as §1

U-2 OS [3] = assay: AUC of culture confluence over time (live-cell imaging) (AUC (confluence % x time)); higher = more confluent culture (less growth inhibition)
Method: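 Live-cell Incucyte imaging of U-2 OS cells in F-12K medium. Compounds were tested mostly at 5, 10 and 20 uM, and cells were imaged every 4 h for up to 60 h. Value is the area under the curve of phase-contrast confluence over time.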

| SMILES | cell painting activity score (U-2 OS [1]; 0.625 µM) | cell painting activity score (U-2 OS [1]; 1.25 µM) | cell painting activity score (U-2 OS [1]; 2.5 µM) | cell painting activity score (U-2 OS [1]; 5 µM) | cell painting activity score (U-2 OS [1]; 10 µM) | cell painting activity score (U-2 OS [1]; 20 µM) | relative cell count (U-2 OS [2]; 0.625 µM) | relative cell count (U-2 OS [2]; 1.25 µM) | relative cell count (U-2 OS [2]; 2.5 µM) | relative cell count (U-2 OS [2]; 5 µM) | relative cell count (U-2 OS [2]; 10 µM) | relative cell count (U-2 OS [2]; 20 µM) | other results |
| --- | --- | --- | --- | --- | --- | --- | --- | --- | --- | --- | --- | --- | --- |
| C=CCNC1=C2C[C@@H](C)C[C@H](OC)[C@H](O)[C@@H](C)/C=C(\C)[C@H](OC(N)=O)[C@@H](OC)/C=C\C=C(/C)C(=O)NC(=CC1=O)C2=O | 16.6 | 19.1 | 19.1 | 19.1 | 19.2 | 18.3 | 0.814 | 0.697 | 0.61 | 0.586 | 0.589 | 0.549 |  |
| O=c1c2ccccc2[se]n1-c1ccccc1 | 4.12 | 5.85 | 11.4 | 12.8 | 12.8 | 18 | 0.989 | 0.995 | 0.973 | 0.98 | 0.521 | 0.312 | AUC of culture confluence over time (U-2 OS [3]; 5 µM): 49.5; AUC of culture confluence over time (U-2 OS [3]; 10 µM): 33.9; AUC of culture confluence over time (U-2 OS [3]; 20 µM): 22.3 |
| CCN(CCO)CCCOc1ccc2c(Nc3cc(CC(=O)Nc4cccc(F)c4)[nH]n3)ncnc2c1 | 14.3 | 14.4 | 14.3 | 14.3 | 14.5 | 14.9 | 0.771 | 0.757 | 0.76 | 0.8 | 0.788 | 0.757 | AUC of culture confluence over time (U-2 OS [3]; 5 µM): 30.4; AUC of culture confluence over time (U-2 OS [3]; 10 µM): 32.1; AUC of culture confluence over time (U-2 OS [3]; 20 µM): 29.6 |
| O=C([O-])C(=O)[O-].[NH-][C@@H]1CCCC[C@H]1[NH-].[Pt+4] | 4.3 | 8.95 | 20.4 | 20 | 19.8 | 22.1 | 0.86 | 0.786 | 0.66 | 0.501 | 0.35 | 0.203 |  |
| Cc1ccc(S(=O)(=O)/C=C/C#N)cc1 | 10.4 | 12.9 | 16.7 | 18.3 | 21 | 23.7 | 0.923 | 0.942 | 0.678 | 0.485 | 0.231 | 0.286 |  |
| CC(C)C[C@@H](C=O)NC(=O)[C@H](CC(C)C)NC(=O)[C@H](CC(C)C)NC(=O)OCc1ccccc1 | 5.55 | 9.38 | 15.5 | 15.7 | 16 | 17.7 | 0.974 | 0.824 | 0.479 | 0.226 | 0.124 | 0.103 |  |
| CO[C@@H]1[C@H](N(C)C(=O)c2ccccc2)C[C@H]2O[C@]1(C)n1c3ccccc3c3c4c(c5c6ccccc6n2c5c31)C(=O)NC4 | 13.9 | 15.2 | 19.8 | 22.9 | 23.7 | 24.4 | 1.02 | 0.757 | 0.456 | 0.362 | 0.347 | 0.354 |  |
| CCCCCCCCCCCCCCCCCCOP(=O)([O-])OC1CC[N+](C)(C)CC1 | 3.72 | 3.21 | 3.03 | 3.98 | 3.76 | 4.51 | 1.02 | 1.03 | 1.11 | 1.05 | 1.05 | 1.02 |  |
| COc1ccc2cc1Oc1ccc(cc1)C[C@H]1c3cc(c(OC)cc3CCN1C)Oc1c(OC)c(OC)cc3c1[C@H](C2)N(C)CC3 | 5.28 | 5.79 | 5.97 | 16.8 | 28.3 | 14.8 | 1.08 | 1.06 | 1.04 | 1.07 | 0.973 | 0.322 |  |
| Oc1ccc(/C=C\c2cc(O)cc(O)c2)cc1 |  |  |  |  |  |  |  |  |  |  |  |  | AUC of culture confluence over time (U-2 OS [3]; 5 µM): 42.1; AUC of culture confluence over time (U-2 OS [3]; 10 µM): 46.9; AUC of culture confluence over time (U-2 OS [3]; 20 µM): 39.8 |
| [Cl][Pt+2][Cl].[NH2-].[NH2-] |  |  |  |  |  |  |  |  |  |  |  |  | cell painting activity score (U-2 OS [1]; 0.2062 µM): 5.52; cell painting activity score (U-2 OS [1]; 0.4124 µM): 4.94; cell painting activity score (U-2 OS [1]; 0.825 µM): 3.93; cell painting activity score (U-2 OS [1]; 1.65 µM): 5.77; cell painting activity score (U-2 OS [1]; 3.3 µM): 3.26; cell painting activity score (U-2 OS [1]; 6.6 µM): 9.14; relative cell count (U-2 OS [2]; 0.2062 µM): 0.954; relative cell count (U-2 OS [2]; 0.4124 µM): 0.964; relative cell count (U-2 OS [2]; 0.825 µM): 0.902; relative cell count (U-2 OS [2]; 1.65 µM): 0.701; relative cell count (U-2 OS [2]; 3.3 µM): 0.937; relative cell count (U-2 OS [2]; 6.6 µM): 0.666 |
| CC(C)(C)c1cc(O)ccc1O | 4.14 | 4.2 | 5.45 | 5.28 | 4.94 | 7.97 | 0.908 | 0.958 | 0.948 | 0.913 | 0.945 | 0.949 |  |
| O=C1Cc2c([nH]c3ccc(Br)cc23)-c2ccccc2N1 | 7.76 | 10.8 | 12.7 | 13.7 | 14.7 | 13.6 | 0.977 | 0.959 | 0.911 | 0.835 | 0.557 | 0.164 |  |
| COC1=C(OC)C(=O)c2ccccc2C1=O | 7.97 | 8.63 | 10.7 | 18.9 | 21.2 | 24.7 | 0.99 | 0.895 | 0.81 | 0.489 | 0.46 | 0.149 |  |
| CC(C)(C)C1=CC(=O)C=CC1=O | 8.46 | 9.82 | 11.5 | 13.4 | 20.3 | 17.6 | 0.952 | 0.904 | 0.867 | 0.435 | 0.32 | 0.124 |  |
| C[C@H](CC[C@@]1(O)O[C@H]2C[C@H]3[C@@H]4CC=C5C[C@@H](O[C@@H]6O[C@H](CO)[C@@H](O[C@@H]7O[C@@H](C)[C@H](O)[C@@H](O)[C@H]7O)[C@H](O)[C@H]6O[C@@H]6O[C@@H](C)[C@H](O)[C@@H](O)[C@H]6O)CC[C@]5(C)[C@H]4CC[C@]3(C)[C@H]2[C@@H]1C)CO[C@@H]1O[C@H](CO)[C@@H](O)[C@H](O)[C@H]1O | 14.9 | 14.4 | 15.1 | 16.6 | 21 | 22.7 | 0.811 | 0.808 | 0.734 | 0.502 | 0.0412 | 0.0114 |  |
| CCN(CC)CCNC(=O)c1c(C)[nH]c(/C=C2\C(=O)Nc3ccc(F)cc32)c1C | 11.2 | 11.5 | 11.3 | 12.4 | 14.5 | 25.1 | 0.983 | 0.945 | 0.983 | 0.917 | 0.831 | 0.503 |  |
| O=C1C=C(Cl)C(=O)c2ccccc21 | 7.9 | 18.1 | 19.4 | 17.9 | 22.2 | 25.4 | 0.745 | 0.492 | 0.216 | 0.29 | 0.169 | 0.267 |  |
| CN[C@@H]1C[C@H]2O[C@@](C)([C@@H]1OC)n1c3ccccc3c3c4c(c5c6ccccc6n2c5c31)C(=O)NC4 |  | 24.2 ± 2.7 |  | 25.5 ± 2.6 |  | 24.1 ± 2 |  | 0.095 ± 0.0065 |  | 0.127 ± 0.042 |  | 0.128 ± 0.039 | cell painting activity score (U-2 OS [1]; 0.019532 µM): 16.8 ± 1.3; cell painting activity score (U-2 OS [1]; 0.07812 µM): 19.8 ± 1.5; cell painting activity score (U-2 OS [1]; 0.3124 µM): 21.2; cell painting activity score (U-2 OS [1]; 0.3126 µM): 25.8 ± 2.3; relative cell count (U-2 OS [2]; 0.019532 µM): 0.757 ± 0.098; relative cell count (U-2 OS [2]; 0.07812 µM): 0.467 ± 0.25; relative cell count (U-2 OS [2]; 0.3124 µM): 0.294; relative cell count (U-2 OS [2]; 0.3126 µM): 0.0507 ± 0.0014 |
| CC(C)C[C@@H](C=O)NC(=O)[C@@H](CC(C)C)NC(=O)[C@H](CC(C)C)NC(=O)OCc1ccccc1 | 4.19 | 4.34 | 5.35 | 5.4 | 3.89 | 7.43 | 1 | 0.959 | 0.944 | 0.993 | 0.986 | 0.909 |  |
| O=C(O)C1(C(=O)O)CCC1.[NH2-].[NH2-].[Pt+2] | 4.1 | 4.15 | 4.49 | 4.29 | 5.7 | 6.66 | 0.92 | 0.853 | 0.786 | 0.855 | 0.844 | 0.814 |  |
| COc1c(O)c2c(=O)cc3c4c5c(cc(=O)c6c(O)c(OC)c(CC(C)O)c(c(c1CC(C)O)c24)c65)OCO3 (configuration not stated) | 4.68 | 7.7 | 10.5 | 13 | 12 | 13.9 | 0.971 | 0.918 | 0.859 | 0.682 | 0.499 | 0.366 |  |
| O=C(Nc1ccc([N+](=O)[O-])cc1Cl)c1cc(Cl)ccc1O | 5.54 | 8.61 | 10.3 | 16 | 17.7 | 14.8 | 1.13 | 1.05 | 1.06 | 0.922 | 0.808 | 0.753 |  |
| CCc1c2c(nc3ccc(O)cc13)-c1cc3c(c(=O)n1C2)COC(=O)[C@]3(O)CC | 12 | 12.3 | 12.7 | 12.3 | 12.1 | 14.9 | 0.523 | 0.525 | 0.515 | 0.467 | 0.446 | 0.482 |  |
| Oc1ccc(/C=C/c2cc(O)cc(O)c2)cc1 |  |  |  |  |  |  |  |  |  |  |  |  | AUC of culture confluence over time (U-2 OS [3]; 5 µM): 49; AUC of culture confluence over time (U-2 OS [3]; 10 µM): 46.4; AUC of culture confluence over time (U-2 OS [3]; 20 µM): 42.5 |
| N#CC(C#N)=NNc1cccc(Cl)c1 | 5.76 | 5.02 | 7.58 | 9.31 | 13.4 | 16.2 | 0.975 | 0.949 | 0.98 | 0.897 | 0.711 | 0.491 |  |
